Data reported in ChEMBL document CHEMBL3885881, “DrugMatrix”.

Organism: Rattus norvegicus
Experiment: DrugMatrix - Regimen: Daily Repeat
Type: toxicity, organism-based, Sprague-Dawley
Design: regimen Daily Repeat, gender Male, age 6-8 weeks
Conditions: in vivo, po, route oral GAVAGE, vehicle 100 % WATER; for ABSOLUTE BASOPHIL / ABSOLUTE EOSINOPHIL / ABSOLUTE LYMPHOCYTE / ABSOLUTE MONOCYTE / ABSOLUTE SEGMENTED NEUTROPHIL / BASOPHIL / EOSINOPHIL / ERYTHROCYTE COUNT / HEMATOCRIT / HEMOGLOBIN / LEUKOCYTE COUNT / LYMPHOCYTE / MEAN CORPUSCULAR HEMOGLOBIN / MEAN CORPUSCULAR HEMOGLOBIN CONCENTRATION / MEAN CORPUSCULAR VOLUME / MONOCYTE / NEUTROPHIL / NUCLEATED RED BLOOD CELLS / PLATELET COUNT: tissue Blood; for ALANINE AMINOTRANSFERASE / ALBUMIN / ALKALINE PHOSPHATASE / ASPARTATE AMINOTRANSFERASE / BLOOD UREA NITROGEN / CARBON DIOXIDE / CHLORIDE / CHOLESTEROL / CREATINE PHOSPHOKINASE / CREATININE / GLUCOSE / LACTATE DEHYDROGENASE / LIPASE / PHOSPHORUS / POTASSIUM / SODIUM / TOTAL BILIRUBIN / TOTAL PROTEIN / URIC ACID: tissue Plasma
[1] = 0 mg/kg, 72 h, dose level Control, time 3 day
[2] = 0 mg/kg, 120 h, dose level Control, time 5 day
[3] = 0.07 mg/kg, 72 h, dose level Low, time 3 day

Cc1cc(C(C)(C)C)c(O)c(C)c1CC1=NCCN1 [OXYMETAZOLINE]
ABSOLUTE BASOPHIL [1]: 0 CELLS/uL | ABSOLUTE EOSINOPHIL [1]: 123.17 CELLS/uL | ABSOLUTE LYMPHOCYTE [1]: 12677.83 CELLS/uL | ABSOLUTE MONOCYTE [1]: 66.17 CELLS/uL | ABSOLUTE SEGMENTED NEUTROPHIL [1]: 1149.5 CELLS/uL | BASOPHIL [1]: 0% | EOSINOPHIL [1]: 0.83% | ERYTHROCYTE COUNT [1]: 5.26 x10E6/uL | HEMATOCRIT [1]: 33.07% | HEMOGLOBIN [1]: 13.43 G/DL | LEUKOCYTE COUNT [1]: 14.02 x10E3/uL | LYMPHOCYTE [1]: 90.17% | MEAN CORPUSCULAR HEMOGLOBIN [1]: 25.62 pg | MEAN CORPUSCULAR HEMOGLOBIN CONCENTRATION [1]: 40.65 G/DL | MEAN CORPUSCULAR VOLUME [1]: 63 fL | MONOCYTE [1]: 0.5% | NEUTROPHIL [1]: 8.5% | NUCLEATED RED BLOOD CELLS [1]: 0.17 /100WBC | PLATELET COUNT [1]: 1142.83 x10E3/uL | ALANINE AMINOTRANSFERASE [1]: 45.17 u/L | ALBUMIN [1]: 3.78 G/DL | ALKALINE PHOSPHATASE [1]: 340.17 u/L | ASPARTATE AMINOTRANSFERASE [1]: 77.33 u/L | BLOOD UREA NITROGEN [1]: 14.67 mg/dL | CARBON DIOXIDE [1]: 28.67 mmol/L | CHLORIDE [1]: 101.17 MEQ/L | CHOLESTEROL [1]: 77.67 mg/dL | CREATINE PHOSPHOKINASE [1]: 263.67 u/L | CREATININE [1]: 0.15 mg/dL | GLUCOSE [1]: 169.33 mg/dL | LACTATE DEHYDROGENASE [1]: 230 u/L | LIPASE [1]: 9.67 u/L | PHOSPHORUS [1]: 11.8 mg/dL | POTASSIUM [1]: 5.91 MEQ/L | SODIUM [1]: 142.88 MEQ/L | TOTAL BILIRUBIN [1]: 0.22 mg/dL | TOTAL PROTEIN [1]: 5.7 G/DL | URIC ACID [1]: 1.35 mg/dL | ABSOLUTE BASOPHIL [2]: 0 CELLS/uL | ABSOLUTE EOSINOPHIL [2]: 125 CELLS/uL | ABSOLUTE LYMPHOCYTE [2]: 13809 CELLS/uL | ABSOLUTE MONOCYTE [2]: 351 CELLS/uL | ABSOLUTE SEGMENTED NEUTROPHIL [2]: 1581.67 CELLS/uL | BASOPHIL [2]: 0% | EOSINOPHIL [2]: 0.67% | ERYTHROCYTE COUNT [2]: 5.53 x10E6/uL | HEMATOCRIT [2]: 34.83% | HEMOGLOBIN [2]: 13.9 G/DL | LEUKOCYTE COUNT [2]: 15.87 x10E3/uL | LYMPHOCYTE [2]: 87.5% | MEAN CORPUSCULAR HEMOGLOBIN [2]: 25.25 pg | MEAN CORPUSCULAR HEMOGLOBIN CONCENTRATION [2]: 40.08 G/DL | MEAN CORPUSCULAR VOLUME [2]: 63.05 fL | MONOCYTE [2]: 2.17% | NEUTROPHIL [2]: 9.67% | NUCLEATED RED BLOOD CELLS [2]: 0 /100WBC | PLATELET COUNT [2]: 1044 x10E3/uL | ALANINE AMINOTRANSFERASE [2]: 50.67 u/L | ALBUMIN [2]: 4.33 G/DL | ALKALINE PHOSPHATASE [2]: 395 u/L | ASPARTATE AMINOTRANSFERASE [2]: 86 u/L | BLOOD UREA NITROGEN [2]: 15.33 mg/dL | CARBON DIOXIDE [2]: 29.33 mmol/L | CHLORIDE [2]: 101.5 MEQ/L | CHOLESTEROL [2]: 71.33 mg/dL | CREATINE PHOSPHOKINASE [2]: 323.17 u/L | CREATININE [2]: 0.18 mg/dL | GLUCOSE [2]: 145.67 mg/dL | LACTATE DEHYDROGENASE [2]: 389.5 u/L | LIPASE [2]: 9.83 u/L | PHOSPHORUS [2]: 11.35 mg/dL | POTASSIUM [2]: 6.39 MEQ/L | SODIUM [2]: 142.77 MEQ/L | TOTAL BILIRUBIN [2]: 0.18 mg/dL | TOTAL PROTEIN [2]: 6.1 G/DL | URIC ACID [2]: 1.52 mg/dL | ABSOLUTE BASOPHIL [3]: 0 CELLS/uL | ABSOLUTE EOSINOPHIL [3]: 62.33 CELLS/uL | ABSOLUTE LYMPHOCYTE [3]: 13944.33 CELLS/uL | ABSOLUTE MONOCYTE [3]: 0 CELLS/uL | ABSOLUTE SEGMENTED NEUTROPHIL [3]: 1260 CELLS/uL | BASOPHIL [3]: 0% | EOSINOPHIL [3]: 0.33% | ERYTHROCYTE COUNT [3]: 5.43 x10E6/uL | HEMATOCRIT [3]: 34.37% | HEMOGLOBIN [3]: 13.87 G/DL | LEUKOCYTE COUNT [3]: 15.27 x10E3/uL | LYMPHOCYTE [3]: 91.67% | MEAN CORPUSCULAR HEMOGLOBIN [3]: 25.53 pg | MEAN CORPUSCULAR HEMOGLOBIN CONCENTRATION [3]: 40.33 G/DL | MEAN CORPUSCULAR VOLUME [3]: 63.33 fL | MONOCYTE [3]: 0% | NEUTROPHIL [3]: 8% | NUCLEATED RED BLOOD CELLS [3]: 0.33 /100WBC | PLATELET COUNT [3]: 1341.33 x10E3/uL | ALANINE AMINOTRANSFERASE [3]: 49.33 u/L | ALBUMIN [3]: 3.83 G/DL | ALKALINE PHOSPHATASE [3]: 309.33 u/L | ASPARTATE AMINOTRANSFERASE [3]: 74 u/L | BLOOD UREA NITROGEN [3]: 12.33 mg/dL | CARBON DIOXIDE [3]: 33.33 mmol/L | CHLORIDE [3]: 100.33 MEQ/L | CHOLESTEROL [3]: 68.67 mg/dL | CREATINE PHOSPHOKINASE [3]: 205.67 u/L | CREATININE [3]: 0.12 mg/dL | GLUCOSE [3]: 144.67 mg/dL | LACTATE DEHYDROGENASE [3]: 166.67 u/L | LIPASE [3]: 10 u/L | PHOSPHORUS [3]: 10.43 mg/dL | POTASSIUM [3]: 6.84 MEQ/L | SODIUM [3]: 142.8 MEQ/L | TOTAL BILIRUBIN [3]: 0.2 mg/dL | TOTAL PROTEIN [3]: 5.67 G/DL | URIC ACID [3]: 1.37 mg/dL
